From patent US20260256925A1, “INDAZOLE DERIVATIVES AS ESTROGEN RECEPTOR DEGRADERS” (REGENTS OF THE UNIVERSITY OF MICHIGAN, priority 2022, published 2026)

Key:
ER [1] = molecular target: T1, ER (Homo sapiens, UniProt P03372); test: In-cell Western (ICW) ER degradation assay in MCF-7 cells; type: cell-based; conditions: for Dmax: MCF7, read-out: ER MCF7 ICW Dmax (%); for DC50: MCF-7 cells, 16 hrs, read-out: ER MCF7 ICW DC50
T1 construct: endogenous in cells; probably T47D or MCF-7
T1 sequence (P03372 1-595): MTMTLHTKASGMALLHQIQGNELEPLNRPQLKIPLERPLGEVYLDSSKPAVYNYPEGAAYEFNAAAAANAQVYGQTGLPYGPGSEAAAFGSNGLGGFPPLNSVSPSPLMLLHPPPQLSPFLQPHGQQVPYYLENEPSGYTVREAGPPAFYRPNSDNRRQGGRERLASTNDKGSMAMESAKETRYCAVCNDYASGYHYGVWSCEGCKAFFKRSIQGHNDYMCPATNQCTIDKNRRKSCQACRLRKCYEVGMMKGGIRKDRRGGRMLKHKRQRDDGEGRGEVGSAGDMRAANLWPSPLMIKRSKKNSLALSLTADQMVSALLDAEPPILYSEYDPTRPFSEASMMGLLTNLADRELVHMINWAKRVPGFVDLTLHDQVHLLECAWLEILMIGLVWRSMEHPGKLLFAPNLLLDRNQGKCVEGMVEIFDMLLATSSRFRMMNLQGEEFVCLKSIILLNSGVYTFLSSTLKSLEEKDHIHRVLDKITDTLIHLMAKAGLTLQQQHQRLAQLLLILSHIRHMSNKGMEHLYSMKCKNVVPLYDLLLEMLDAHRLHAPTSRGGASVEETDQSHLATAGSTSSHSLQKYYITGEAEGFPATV

T47D cells = test: CellTiter-Glo (CTG) cell proliferation assay in T47D cells; type: cell-based; conditions: Homo sapiens, 144 h, Day 6
Source text: (§1) CellTiter-Glo® (CTG) assays in MCF-7 and T47D cell lines.
(§2) In vitro Assay: MCF-7 and T47D CTG assay

MCF-7 cells = test: CellTiter-Glo (CTG) cell proliferation assay in MCF-7 cells; type: cell-based; conditions: Homo sapiens, MCF7, 144 h, Day 6
Source text: as §1, §2

ER [2] = molecular target: T1, ER; test: In-cell Western (ICW) ER degradation assay in T47D cells; type: cell-based; conditions: for Dmax: T47D, read-out: ER T47D ICW Dmax (%)
ERα_LBD (GST) = molecular target: T2, ERα_LBD (GST) (Homo sapiens, UniProt P03372); test: IC50 measurements for binding to ERα_LBD (GST), LanthaScreen TR-FRET ERα competitive binding assay; conditions: Fluormone ES2 Green tracer, 60 min, read-out: ERα HTRF IC50
T2 construct: ERα_LBD (GST) protein: 4 nM; purchased ThermoFisher A15887
T2 sequence (P03372 311-547 limits assumed): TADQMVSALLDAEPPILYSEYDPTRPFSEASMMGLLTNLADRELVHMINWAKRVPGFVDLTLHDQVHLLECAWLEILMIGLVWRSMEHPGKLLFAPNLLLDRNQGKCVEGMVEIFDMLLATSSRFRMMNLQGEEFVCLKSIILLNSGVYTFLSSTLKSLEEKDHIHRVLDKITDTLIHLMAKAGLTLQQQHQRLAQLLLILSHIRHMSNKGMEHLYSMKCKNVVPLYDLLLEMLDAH
Experimental: In vitro Assay: IC50 Measurements for binding to ERα_LBD (GST)·
Final assay conditions: • 1. ERα_LBD (GST) protein: 4 nM • 2. Tb Anti-GST: 2 nM • 3. Fluormone ES2 Green tracer: 3 nM • 4. Incubation time: 60 min • 5. DMSO: 1% • 6. Assay buffer: Adding 1M DTT to Nuclear receptor Buffer K for final 5 mM DTT. • 7. ZPE: 1% DMSO • 8. HPE: 1 μM ARV_471 • 9. LanthaScreen® TR-FRET ERα Competitive Binding Assay (ThermoFisher, #A^15887)
100× Compound preparation: • 1) Cherry pick 2 μL 10 mM compound stock to column 1 of a 384 intermediate plate • 2) Add 18 μL DMSO to column 1 to dilute compound to 1 mM. • 3) Transfer 10 μL 1 mM compound to column 1 of a LDV plate. • 2) Add 6 μl DMSO to column 2-10 of the LDV plate. • 3) Compounds undergo 3-fold serial dilution (3 μL+6 μL) in DMSO. • 4) Transfer 120 nL compound solution to assay plate.
Prepare complete nuclear receptor buffer K by adding 1 M DTT to nuclear receptor buffer K for a final concentration of 5 mM DTT. Complete nuclear receptor buffer K must be prepared fresh daily. Prepare 2× protein solution using complete nuclear receptor buffer K containing 8 nM ERα_LBD (GST) and 4 nM Tb Anti-GST. Then, prepare 2× Fluormone ES2 Green tracer (6 nM) using complete nuclear receptor buffer K. Add 6 μL 2× Fluormone ES2 green tracer into a compound plate (PerkinElmer 6008289) by dragonfly with one-tips-addition. Subsequently, add 6 μL 2× protein solution into the plate. Briefly and gently mix the 384-well plate on a plate shaker and incubate at room temperature protected from light for 60 min. The plate is sealed with a cover to minimize evaporation. Read the plate at wavelengths of 520 nm and 495 nm. Calculate the TR-FRET ratio by dividing the emission signal at 520 nm by the emission signal at 495 nm. Generate a binding curve by plotting the emission ratio vs. the log [ligand]. To determine the IC50 value, fit the data using XL-fit for a sigmoidal dose-response.

Row | SMILES | Dmax (ER [1]) | DC50 (ER [1]) | IC50 (T47D cells) | IC50 (MCF-7 cells) | DC50 (ER [2]; T47D cells, 16 hrs) | Dmax (ER [2]; T47D cells, 16 hrs) | IC50 (ERα_LBD (GST)) | Dmax (ER [2])
1 | C[C@@H]1Cc2c(ccc3[nH]ncc23)[C@H](c2ccc(N3CCC4(CC3)CC(CN3CCN5c6ccc7c(c6OC[C@H]5C3)CN([C@H]3CCC(=O)NC3=O)C7=O)CO4)nc2)N1CC(F)(F)F (stereo partly drawn) [Compound A21, (3S)-3-((5aR)-7-((8-(5-((6R,8R)-8-methyl-7-(2,2,2-trifluoroethyl)-6,7,8,9-tetrahydro-3H-pyrazolo[4,3-f]isoquinolin-6-yl)pyridin-2-yl)-1-oxa-8-azaspiro[4.5]decan-3-yl)methyl)-1-oxo-1,3,5,5a,6,7,8,9-octahydro-2H-pyrazino[1′,2′: 4,5][1,4]oxazino[2,3-e]isoindol-2-yl)piperidine-2,6-dione] | > 75% | < 1 nM | 10 to 50 nM | < 10 nM | < 1 nM | > 75% | < 10 nM | 
2 | C[C@@H]1Cc2c(ccc3[nH]ncc23)C(c2ccc(N3CCC4(CC3)CC(CN3CCN5c6ccc7c(c6OC[C@H]5C3)CN([C@H]3CCC(=O)NC3=O)C7=O)C4)nc2)N1CC(F)(F)F (stereo in doubt) [Compound A26, (S)-3-((R)-7-((7-(5-((6R,8R)-8-methyl-7-(2,2,2-trifluoroethyl)-6,7,8,9-tetrahydro-3H-pyrazolo[4,3-f]isoquinolin-6-yl)pyridin-2-yl)-7-azaspiro[3.5]nonan-2-yl)methyl)-1-oxo-1,3,5,5a,6,7,8,9-octahydro-2H-pyrazino[1′,2′: 4,5][1,4]oxazino[2,3-e]isoindol-2-yl)piperidine-2,6-dione] | > 75% | < 1 nM | 10 to 50 nM | 10 to 50 nM | < 1 nM | > 75% | < 10 nM | 
3 | C[C@@H]1Cc2c(ccc3[nH]ncc23)[C@@H](c2ccc(N3CCC(CN4CCN5c6cc7c(cc6OC[C@@H]5C4)C(=O)N([C@H]4CCC(=O)NC4=O)C7)CC3)nc2)N1CC(F)(F)F [Compound A24, (S)-3-((S)-3-((1-(5-((6S,8R)-8-methyl-7-(2,2,2-trifluoroethyl)-6,7,8,9-tetrahydro-3H-pyrazolo[4,3-f]isoquinolin-6-yl)pyridin-2-yl)piperidin-4-yl)methyl)-8-oxo-1,2,3,4,4a,5,8,10-octahydro-9H-pyrazino[1′,2′: 4,5][1,4]oxazino[2,3-f]isoindol-9-yl)piperidine-2,6-dione] | 50 to 75% | < 1 nM | > 50 nM | > 50 nM | < 1 nM |  | < 10 nM | > 75%
